Values quoted from earlier work in patent US9045800B2, “Methods and compositions for identifying, classifying and monitoring subject having Bcl-2 family inhibitor-resistant tumors and cancers” (AbbVie Inc., priority 2009, dated 2015).

Tests used:
solid tumors = conditions: literature statement, no dose or model printed
[1] = system: human cancer cell lines (SCLC and lymphoma cell lines)

CN(C)CC[C@H](CSc1ccccc1)Nc1ccc(S(=O)(=O)NC(=O)c2ccc(N3CCN(Cc4ccccc4-c4ccc(Cl)cc4)CC3)cc2)cc1[N+](=O)[O-] [ABT-737, N-(4-(4-((4′-chloro(1,1′-biphenyl)-2-yl)methyl)piperazin-1-yl)benzoyl)-4-(((1R)-3-(dimethylamino)-1-((phenylsulfanyl)methyl)propyl)amino)-3-nitrobenzenesulfonamide]
effect on solid tumors (solid tumors): induce regression of solid tumors | potency against a diverse panel of human cancer cell lines [1]: selective potency against SCLC and lymphoma cell lines
